Assay results from patent publication US9096687B2, “Inhibition of inflammation using antagonists of MUC1” (DANA-FARBER CANCER INSTITUTE, INC., priority 2009, dated 2015).
Square brackets hold non-standard residues; d marks the D form. Ends that are not written are not given here.

What was measured:
[1] = test system: H-1975 non-small cell lung carcinoma cell line; settings: H-1975 cells, 5 μM, 3 days
Protocol: H-1975 non-small cell lung carcinoma cell line was grown in DMEM with 10% heat-inactivated fetal bovine serum with 100 units/mL penicillin, 100 μg/ml streptomycin and 2 mmol/L L-glutamine. Cells were re-seeded one day before treatments. Cells were treated with 5 μM GO-200-2B for 3 days and cell viability was determined by trypan blue exclusion.
Moreover, another non-small cell lung carcinoma cell line, H-1975, was treated with 5 μM GO-200-2B for 3 days and monitored for cell growth as well as cell death.

[2] = test system: multiple carcinoma cell lines; assay: Growth and killing of carcinoma cell lines by L-amino acid MUC1 C-terminal peptides; format: cell-based
Source text: GO-203 analogs. The inventors' recent studies have shown that a MUC1 C-terminal peptide (CQCRRKNYGQLDIFP; SEQ ID NO:3) is active in inhibiting growth of multiple carcinoma cell lines. […] However, these MUC1-C-terminal peptides consists of L-amino acids. […] Consequently, they have generated an all-dextro form of the above described shorter MUC1 C-terminal peptide, in which the L-amino acids were changed to D-amino acids (GO-203). Moreover, to determine the minimum amino acid residues from the MUC1-C-terminal region that are required to retain the cell killing activity, they have also generated many different versions of GO-203 as described in FIG. 15.

[3] = test system: ZR-75-1 breast carcinoma cells; assay: Proliferation of ZR-75-1 breast carcinoma cells (trypan blue exclusion); format: cell-based, Human; settings: 5 μM every day for 4 days
Protocol: FIG. 17: Effect of different MUC1-CD CQC-region peptides on the growth of hormone-dependent breast carcinoma cells. To determine whether exposure to different MUC1-CD CQC-region containing peptides affect growth, ZR-75-1 breast carcinoma cells were treated with 5 μM of different peptides for 4 days and monitored for cell proliferation.
FIG. 21: Effect of Shorter GO-203 peptides on proliferation of ZR-75-1 Breast Cancer Cells. Human ZR-75-1 breast cancer cells were grown in RPMI1640 supplemented with 10% heat-inactivated fetal bovine serum, 100 units/ml penicillin, 100 μg/ml streptomycin. Cells were treated with different peptides at 5 μM every day for four days and cell viability was determined by trypan blue exclusion.
Multiple tumor cell lines (ZR-75-1 Hormone-dependent Breast Carcinoma; MDA-MB-231 Triple-Negative Breast Carcinoma; A549 Non-small Cell Lung Carcinoma; H-1975 Non-small Cell Lung Carcinoma) were grown in RPMI-1640 supplemented with 10% heat-inactivated fetal bovine serum, 100 units/mL penicillin and 100 μg/mL streptomycin and 2 mmol/L L-glutamine. Cells were treated separately with 5 μM of different analogs of GO-203 (FIG. 15) for 3 to 7 days and viability was determined by trypan blue exclusion. The proliferation of different cell lines was compared with cells treated with vehicle only.

[4] = biological target: T1, interaction between MUC1-CD and STAT3 (Homo sapiens, UniProt P15941); assay: In vitro binding of GST-STAT3 to purified MUC1-CD; settings: 1 h at room temperature
T1 construct: a GST fusion protein containing the 72 amino acid MUC1-CD; GST (cleaved yes); made in house
T1 sequence (P15941 1184-1255): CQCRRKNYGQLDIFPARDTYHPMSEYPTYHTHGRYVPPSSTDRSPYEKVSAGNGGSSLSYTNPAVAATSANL

[5] = biological target: T2, IL-6-induced interaction between MUC1-C and STAT3 (Homo sapiens, UniProt P15941); assay: Anti-STAT3 co-immunoprecipitation from IL-6-stimulated MCF-10A cells; format: cell-based; parameters: dose or concentration left out as unconfirmed; settings: peptide added each 24 h for 72 h
T2 construct: C-terminal subunit (MUC1 C-ter, MUC1-C), which includes a 58 amino acid extracellular region; endogenous in cells; host or cells: MCF-10A
T2 sequence (P15941 1098-1255 limits assumed): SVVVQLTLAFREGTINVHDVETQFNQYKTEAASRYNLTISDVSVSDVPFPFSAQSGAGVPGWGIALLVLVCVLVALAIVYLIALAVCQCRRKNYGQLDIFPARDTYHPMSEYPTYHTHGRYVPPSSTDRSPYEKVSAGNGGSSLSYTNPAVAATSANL

[6] = test system: carcinoma cells overexpressing MUC1; assay: Growth arrest and necrosis of cells exposed to peptide; format: cell-based; settings: for growth arrest and induction of necrosis: exposure of cells
Source text: (§1) Previous Studies. Overexpression of MUC1 is sufficient for the induction of anchorage-independent growth and tumorigenicity (Li et al., 2003a; Huang et al., 2003; Huang et al., 2005). […] MUC1 forms oligomers and the CQC motif is necessary for this oligomerization (Leng et al., 2007). Moreover, oligomer formation is necessary for targeting of the MUC1-C subunit to the nucleus (Leng et al., 2007). The inventors synthesized a MUC1-derived peptide that contains the CQC motif and a poly-Arg cell delivery domain for entry into cells.

[7] = biological target: T3, interaction between MUC1-CD and NF-κB p65 (Homo sapiens, UniProt P15941); assay: In vitro binding of GST-MUC1-CD to purified NF-κB p65 (glutathione bead adsorbates, anti-p65 immunoblot); settings: 1 h at room temperature
T3 construct: a GST fusion protein containing the 72 amino acid MUC1-CD; made in house
T3 sequence (P15941 1184-1255): T1 sequence (P15941 1184-1255)
Protocol: In Vitro Binding Assays. GST, GST-MUC1-CD, GST-MUC1-CD(1-45) and GST-MUC1-CD(46-72) were prepared as described (Ahmad et al., 2007) and incubated with p65 and certain p65 deletion mutants. Purified GST-MUC1-CD was cleaved with thrombin to remove the GST moiety. GST-IκBα (Millipore, Billerica, Mass.) was incubated with p65(186-306) for 2 h at 25° C. in the absence and presence of purified MUC1-CD. Adsorbates to glutathione-conjugated beads were analyzed by immunoblotting.

MUC1-CD oligomerization = biological target: T4, MUC1-CD oligomerization (Homo sapiens, UniProt P15941); assay: Oligomerization of MUC1-CD in vitro; format: biochemical
T4 construct: contains a 72-amino acid cytoplasmic domain (MUC1-CD)
T4 sequence (P15941 1184-1255): T1 sequence (P15941 1184-1255)
Source text: as §1

[8] = test system: MUC1-C and NF-κB p65 occupancy of the NF-κB binding motif in the MUC1 promoter; assay: ChIP of MUC1 promoter NF-κB binding motif in TNFα-stimulated MCF-10A cells; settings: 5 μM peptide added each 24 h for 72 h
Protocol: MCF-10A cells were left untreated or stimulated with TNFα in the presence of 5 μM MUC1/CQC or MUC1/AQA peptide added each 24 h for 72 h. […] (FIGS. 6B and 6C) MCF-10A cells were left untreated or stimulated with TNFα in the presence of 5 μM MUC1/CQC or MUC1/AQA peptide added each 24 h for 72 h. Soluble chromatin was precipitated with anti-MUC1-C (left) or anti-p65 (right) and then analyzed for MUC1 NF-κB binding motif promoter sequences (FIG. 6B).
ChIP Assays. Soluble chromatin was prepared as described (Wei et al., 2006) and precipitated with anti-p65, anti-MUC1-C or a control non-immune IgG. […] For PCR, 2 μl from a 50 μl DNA extraction was used with 25-35 cycles of amplification.

[9] = test system: STAT3 and MUC1-C on the MUC1 promoter; assay: ChIP of MUC1 promoter STAT binding site in IL-6-stimulated MCF-10A cells; format: cell-based, Human; settings: 5 mM peptide added each 24 h for 72 h
[10] = test system: TNFα-induced MUC1 and Bcl-xL expression; assay: Immunoblot of lysates from TNFα-stimulated MCF-10A cells; format: cell-based, Human; settings: 5 μM peptide added each 24 h for 72 h
Protocol: Immunoprecipitation and immunoblotting. Lysates from sub-confluent cells were prepared as described (Ren et al., 2004). Soluble proteins were precipitated with anti-NF-κB p65 (Santa Cruz Biotechnology, Santa Cruz, Calif.). The immunoprecipitates and cell lysates were subjected to immunoblotting with anti-p65, anti-p65 (180-306) (Millipore, Billerica, Mass.) anti-MUC1-C (Ab5; Lab Vision, Fremont, Calif.), anti-IκBα (Santa Cruz Biotechnology), anti-Bcl-xL (Santa Cruz Biotechnology) and anti-α-actin (Sigma, St. Louis, Mo.). Immune complexes were detected with horseradish peroxidase-conjugated secondary antibodies (GE Healthcare Biosciences, Piscataway, N.J.) and enhanced chemiluminescence (GE Healthcare).

[11] = test system: MUC1-C levels in the nucleus; assay: MUC1-C levels in the nucleus after peptide uptake; format: cell-based; settings: after uptake of the peptide
Source text: as §1

MUC1 promoter = assay: Constitutive activation of the MUC1 promoter in breast cancer cells; format: cell-based
Protocol: (§2) MUC1-C Promotes STAT3-Mediated Transcription. […] In concert with these observations, silencing MUC1 in breast cancer cells was associated with decreases in (i) constitutive STAT3 occupancy on the STAT binding site, and (ii) constitutive activation of the MUC1 promoter. To provide further support for an auto-inductive loop, studies were performed with GO-201, an inhibitor of MUC1-C oligomerization (Raina, 2009). […] Moreover, GO-201 blocked IL-6 induced activation of the MUC1 promoter. […] These findings thus provide support for the potential importance of the MUC1-C-STAT3 interaction in targeting STAT3 to the MUC1 promoter and promoting activation of the MUC1 gene in an auto-inductive loop (FIG. 7D).

pMUC1-Luc reporter = pMUC1-Luc reporter assay in IL-6-stimulated MCF-10A cells; format: cell-based, Human
Protocol: Luciferase Assays. Cells were transfected with NFκB-Luc (Ahmad et al., 2007) or pMUC1-Luc (Yin et al., 2003) and SV-40-Renilla-Luc (Promega, Madison, Wis.) in the presence of Lipofectamine. After 48 h, the cells were lysed in passive lysis buffer. Lysates were analyzed for firefly and Renilla luciferase activities using the dual luciferase assay kit (Promega).

[12] = test system: MUC1-C and STAT3 occupancy of the MUC1 promoter; assay: Constitutive occupancy of the MUC1 promoter in breast cancer cells; format: cell-based
Protocol: as §2

[13] = biological target: T5, TNFα-induced interaction between MUC1-C and NF-κB p65 (Homo sapiens, UniProt P15941); assay: Anti-p65 co-immunoprecipitation from TNFα-stimulated MCF-10A cells; format: cell-based; settings: 5 μM peptide added each 24 h for 72 h
T5 construct: C-terminal subunit (MUC1 C-ter, MUC1-C), which includes a 58 amino acid extracellular region; endogenous in cells; host or cells: MCF-10A
T5 sequence (P15941 1098-1255 limits assumed): T2 sequence (P15941 1098-1255 limits assumed)
Protocol: Cell Culture. Human ZR-75-1 breast cancer and U-937 leukemia cells were grown in RPMI 1640 medium containing 10% heat-inactivated fetal bovine serum (FBS), 100 units/ml penicillin, 100 μg/ml streptomycin and 2 mM L-glutamine. Human HeLa cervical and MCF-7 breast carcinoma cells were grown in Dulbecco's modified Eagle's medium with 10% FBS, antibiotics and L-glutamine. Human MCF-10A breast epithelial cells were grown in mammary epithelial cell growth medium (MEGM; Lonza, Walkersville, Md.) and treated with 20 ng/ml TNFα (BD Biosciences, San Jose, Calif.). Transfection of the MCF-10A cells with siRNA pools (Dharmacon, Lafayette, Colo.) was performed in the presence of Lipofectamine 2000 (Invitrogen, Carlsbad, Calif.). Cells were treated with 5 μM MUC1/CQC and MUC1/AQA peptides synthesized by the MIT Biopolymer Laboratory (Cambridge, Mass.).
Immunoprecipitation and immunoblotting. Lysates from sub-confluent cells were prepared as described (Ren et al., 2004). Soluble proteins were precipitated with anti-NF-κB p65 (Santa Cruz Biotechnology, Santa Cruz, Calif.). […] Immune complexes were detected with horseradish peroxidase-conjugated secondary antibodies (GE Healthcare Biosciences, Piscataway, N.J.) and enhanced chemiluminescence (GE Healthcare).

tumor growth = assay: Administration to tumor bearing mice
Source text: as §1

severe sepsis = settings: decreased from about 31%; cited from earlier work
[14] = tumor bearing mice, 10 and 30 mg/kg/d for 21 d

Compound: CC(=O)N[C@@H](C)C(=O)N[C@@H](CCCCN)C(=O)N[C@@H](CCCCN)C(=O)N[C@@H](Cc1ccc(O)cc1)C(=O)N[C@@H](CC(C)C)C(=O)N[C@@]1(C)CCCC=CCCCC2(CCCC=CCCC[C@@](C)(C(=O)N[C@@H](CCCNC(=N)N)C(=O)N[C@@H](CCCCN)C(=O)N[C@@H](CC(N)=O)C(=O)N[C@@H](Cc3ccc(O)cc3)C(N)=O)NC(=O)[C@H](CS)NC(=O)[C@H](CCC(N)=O)NC(=O)[C@H](CS)NC2=O)NC(=O)[C@H](C)NC(=O)[C@H](CC(C)C)NC(=O)[C@H](C)NC1=O (stereo partly shown) [GO-200-2B]
- induction of cell death [1]: significant induction of cell death

Compound: CQCRRKN [shorter MUC1-C-terminal peptide consisting of L-amino acids]
- killing tumor cells [2]: active

Compound: CQCRRKNYGQLDIFP
- inhibiting growth of multiple carcinoma cell lines [2]: active

Compound: GO-203: all-dextro form of the shorter MUC1 C-terminal peptide CQCRRKN (SEQ ID NO:53), L-amino acids changed to D-amino acids ([dC][dQ][dC][dR][dR][dK][dN]; cysteine pairing not given here)
- growth of ZR-75-1 breast carcinoma cells [3]: significant inhibition of growth

Compound: GO-207: shorter GO-203 peptide, SEQ ID NO:4 (CQCRRK)
- growth of ZR-75-1 breast carcinoma cells [3]: significant inhibition of growth

Compound: GO-208: shorter GO-203 peptide, SEQ ID NO:50 (CQCRR)
- growth of ZR-75-1 breast carcinoma cells [3]: significant inhibition of growth

Compound: GO-209: shorter GO-203 peptide, SEQ ID NO:54 (CQCR)
- growth of ZR-75-1 breast carcinoma cells [3]: significant inhibition of growth

Compound: MUC1/AQA: control peptide in which the CQC motif was mutated to AQA (SEQ ID NO:62), with poly D-arginine transduction domain (AQARRKNYGQLDIFP; also: poly D-arginine transduction domain, not placed) [reference compound]
- interaction between MUC1-CD and STAT3 in vitro [4]: not
- IL-6-induced interaction between MUC1-C and STAT3 [5]: not
- growth arrest and induction of necrosis [6]: not
- interaction between MUC1-CD and NF-κB p65 in vitro [7]: little if any effect
- oligomerization of MUC1-CD in vitro (MUC1-CD oligomerization): did not

Compound: MUC1/CQC: peptide corresponding to MUC1-CD(1-15) (SEQ ID NO:3, CQCRRKNYGQLDIFP) with poly D-arginine transduction domain; inhibitor of MUC1-C oligomerization (cysteine pairing not given here; also: poly D-arginine transduction domain, not placed)
- TNFα-induced MUC1-C and NF-κB p65 occupancy of the NF-κB binding motif [8]: decreased
- IL-6-induced targeting of STAT3 and MUC1-C to the MUC1 promoter [9]: inhibited
- TNFα-induced Bcl-xL expression [10]: attenuated
- TNFα-induced MUC1 expression [10]: decreased
- interaction between MUC1-CD and STAT3 in vitro [4]: blocked
- IL-6-induced interaction between MUC1-C and STAT3 [5]: blocked
- MUC1-C levels in the nucleus [11]: down-regulation
- constitutive activation of the MUC1 promoter (MUC1 promoter): inhibits
- IL-6-induced activation of the pMUC1-Luc reporter (pMUC1-Luc reporter): attenuated
- selectivity of dominant-negative activity [6]: selective for carcinoma cells overexpressing MUC1
- growth arrest and induction of necrosis [6]: growth arrest and the induction of necrosis
- constitutive occupancy of the MUC1 promoter by MUC1-C and STAT3 [12]: inhibits
- TNFα-induced interaction between MUC1-C and NF-κB p65 [13]: blocked
- interaction between MUC1-CD and NF-κB p65 in vitro [7]: blocked the interaction
- tumor growth following treatment (tumor growth; 50 mg/kg/d for 7 d): tumor growth remains arrested for extended periods
- tolerability (tumor growth; [14]): well-tolerated without apparent acute toxicities
- tumor growth (tumor growth; [14]): effective in abrogating tumor growth
- oligomerization of MUC1-CD in vitro (MUC1-CD oligomerization): inhibits

Compound: drotrecogin alfa
- mortality (severe sepsis): about 25%
